Results taken from ChEMBL document CHEMBL1201862, “PubChem BioAssay data set” (2004).
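Growth conditions: 96-well plates. Treatment: test compound, 48 hours, 5 concentrations. Analysis: linear interpolation between bracketing concentrations; unreached endpoints set to highest concentration. Abbreviation: GI50, concentration required for 50% inhibition of growth.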 Activity calls are given as the source filed them. Cut-off read from the data, not from the text of the source: active = GI50 up to about 1.1 µM and inactive = higher.

What was measured:
Test in all cases: NCI anticancer screen, dose series, 48 h
HCT-15 = tested on: HCT-15
OVCAR-4 = tested on: OVCAR-4
SF-268 = tested on: SF-268
SF-295 = tested on: SF-295
PC-3 = tested on: PC-3
SW-620 = tested on: SW-620
786-0 = tested on: 786-0
EKVX = tested on: EKVX
COLO 205 = tested on: COLO 205
NCI/ADR-RES = tested on: NCI/ADR-RES
HCC 2998 = tested on: HCC 2998
KM12 = tested on: KM12
SK-MEL-5 = tested on: SK-MEL-5
IGROV-1 = tested on: IGROV-1
T47D = tested on: T47D
Malme-3M = tested on: Malme-3M
A549 = tested on: A549
HT-29 = tested on: HT-29
UACC-62 = tested on: UACC-62
HOP-62 = tested on: HOP-62
DU-145 = tested on: DU-145
OVCAR-8 = tested on: OVCAR-8
SF-539 = tested on: SF-539
HCT-116 = tested on: HCT-116
MOLT-4 = tested on: MOLT-4
SK-MEL-28 = tested on: SK-MEL-28
CCRF-CEM = tested on: CCRF-CEM
SR = tested on: SR
MDA-MB-231 = tested on: MDA-MB-231
SNB-19 = tested on: SNB-19
TK-10 = tested on: TK-10
HOP-92 = tested on: HOP-92
M14 = tested on: M14
RPMI-8226 = tested on: RPMI-8226
SK-OV-3 = tested on: SK-OV-3
BT-549 = tested on: BT-549
K562 = tested on: K562
MDA-N = tested on: MDA-N
OVCAR-3 = tested on: OVCAR-3
SNB-75 = tested on: SNB-75
A498 = tested on: A498
MCF7 = tested on: MCF7
MDA-MB-435 = tested on: MDA-MB-435
Hs-578T = tested on: Hs-578T
HL-60 = tested on: HL-60
ACHN = tested on: ACHN
SN12C = tested on: SN12C
U-251 = tested on: U-251
UACC-257 = tested on: UACC-257
CAKI-1 = tested on: CAKI-1
NCI-H460 = tested on: NCI-H460
NCI-H23 = tested on: NCI-H23
SK-MEL-2 = tested on: SK-MEL-2
UO-31 = tested on: UO-31
LOX IMVI = tested on: LOX IMVI
NCI-H226 = tested on: NCI-H226
OVCAR-5 = tested on: OVCAR-5
NCI-H522 = tested on: NCI-H522

Compound: COc1ccc(C(=O)N2CCc3c([nH]c4ccccc34)C2C(=O)O)o1 (stereo not given)
- GI50 (HCT-15): > 10 µM
- GI50 (OVCAR-4): > 10 µM (inactive)
- GI50 (SF-268): > 10 µM (inactive)
- GI50 (SF-295): > 10 µM (inactive)
- GI50 (PC-3): > 10 µM (inactive)
- GI50 (SW-620): > 10 µM (inactive)
- GI50 (786-0): > 10 µM (inactive)
- GI50 (EKVX): > 10 µM (inactive)
- GI50 (COLO 205): > 10 µM (inactive)
- GI50 (NCI/ADR-RES): > 10 µM (inactive)
- GI50 (HCC 2998): > 10 µM (inactive)
- GI50 (KM12): > 10 µM (inactive)
- GI50 (SK-MEL-5): > 10 µM (inactive)
- GI50 (IGROV-1): > 10 µM (inactive)
- GI50 (T47D): > 10 µM (inactive)
- GI50 (Malme-3M): > 10 µM (inactive)
- GI50 (A549): > 10 µM (inactive)
- GI50 (HT-29): > 10 µM (inactive)
- GI50 (UACC-62): > 10 µM (inactive)
- GI50 (HOP-62): > 10 µM (inactive)
- GI50 (DU-145): > 10 µM (inactive)
- GI50 (OVCAR-8): > 10 µM (inactive)
- GI50 (SF-539): > 10 µM (inactive)
- GI50 (HCT-116): > 10 µM (inactive)
- GI50 (MOLT-4): > 10 µM (inactive)
- GI50 (SK-MEL-28): > 10 µM (inactive)
- GI50 (CCRF-CEM): > 10 µM (inactive)
- GI50 (SR): > 10 µM (inactive)
- GI50 (MDA-MB-231): > 10 µM (inactive)
- GI50 (SNB-19): > 10 µM (inactive)
- GI50 (TK-10): > 10 µM (inactive)
- GI50 (HOP-92): > 10 µM (inactive)
- GI50 (M14): > 10 µM (inactive)
- GI50 (RPMI-8226): > 10 µM (inactive)
- GI50 (SK-OV-3): > 10 µM (inactive)
- GI50 (BT-549): > 10 µM (inactive)
- GI50 (K562): > 10 µM (inactive)
- GI50 (MDA-N): > 10 µM (inactive)
- GI50 (OVCAR-3): > 10 µM (inactive)
- GI50 (SNB-75): > 10 µM (inactive)
- GI50 (A498): > 10 µM (inactive)
- GI50 (MCF7): > 10 µM (inactive)
- GI50 (MDA-MB-435): > 10 µM (inactive)
- GI50 (Hs-578T): > 10 µM (inactive)
- GI50 (HL-60): > 10 µM (inactive)
- GI50 (ACHN): > 10 µM (inactive)
- GI50 (SN12C): > 10 µM (inactive)
- GI50 (U-251): > 10 µM (inactive)
- GI50 (UACC-257): > 10 µM (inactive)
- GI50 (CAKI-1): > 10 µM (inactive)

Compound: COc1cc([N+](=O)[O-])ccc1NC(=O)C(F)(F)F
- GI50 (HCT-15): > 100 µM
- GI50 (OVCAR-4): > 100 µM (inactive)
- GI50 (SF-268): > 100 µM (inactive)
- GI50 (SF-295): > 100 µM (inactive)
- GI50 (PC-3): > 100 µM (inactive)
- GI50 (SW-620): > 100 µM (inactive)
- GI50 (NCI-H460): > 100 µM (inactive)
- GI50 (786-0): > 100 µM (inactive)
- GI50 (EKVX): > 100 µM (inactive)
- GI50 (COLO 205): > 100 µM (inactive)
- GI50 (NCI/ADR-RES): > 100 µM (inactive)
- GI50 (NCI-H23): > 100 µM (inactive)
- GI50 (SK-MEL-2): > 100 µM (inactive)
- GI50 (KM12): 97.9 µM (inactive)
- GI50 (SK-MEL-5): > 100 µM (inactive)
- GI50 (IGROV-1): > 100 µM (inactive)
- GI50 (T47D): 97.7 µM (inactive)
- GI50 (A549): > 100 µM (inactive)
- GI50 (HT-29): 65.3 µM (inactive)
- GI50 (UACC-62): 43.1 µM (inactive)
- GI50 (HOP-62): > 100 µM (inactive)
- GI50 (DU-145): > 100 µM (inactive)
- GI50 (OVCAR-8): > 100 µM (inactive)
- GI50 (UO-31): 84.3 µM (inactive)
- GI50 (SF-539): > 100 µM (inactive)
- GI50 (HCT-116): > 100 µM (inactive)
- GI50 (LOX IMVI): > 100 µM (inactive)
- GI50 (NCI-H226): > 100 µM (inactive)
- GI50 (OVCAR-5): > 100 µM (inactive)
- GI50 (MOLT-4): > 100 µM (inactive)
- GI50 (SK-MEL-28): > 100 µM (inactive)
- GI50 (CCRF-CEM): > 100 µM (inactive)
- GI50 (SR): > 100 µM (inactive)
- GI50 (MDA-MB-231): > 100 µM (inactive)
- GI50 (SNB-19): > 100 µM (inactive)
- GI50 (TK-10): > 100 µM (inactive)
- GI50 (M14): > 100 µM (inactive)
- GI50 (RPMI-8226): > 100 µM (inactive)
- GI50 (SK-OV-3): > 100 µM (inactive)
- GI50 (BT-549): > 100 µM (inactive)
- GI50 (K562): > 100 µM (inactive)
- GI50 (MDA-N): > 100 µM (inactive)
- GI50 (OVCAR-3): > 100 µM (inactive)
- GI50 (SNB-75): > 100 µM (inactive)
- GI50 (A498): > 100 µM (inactive)
- GI50 (NCI-H522): 80.7 µM (inactive)
- GI50 (MCF7): > 100 µM (inactive)
- GI50 (MDA-MB-435): > 100 µM (inactive)
- GI50 (Hs-578T): > 100 µM (inactive)
- GI50 (HL-60): > 100 µM (inactive)
- GI50 (ACHN): > 100 µM (inactive)
- GI50 (SN12C): > 100 µM (inactive)
- GI50 (U-251): > 100 µM (inactive)
- GI50 (UACC-257): > 100 µM (inactive)
- GI50 (CAKI-1): > 100 µM (inactive)
